Measured values: patent publication US6403575B1, “3-Pyridyl enantiomers and their use as analgesics” (Abbott Laboratories, priority 1996, dated 2002)
Where a name gives a salt, the structure may show the parent alone. Read-outs that look alike come from different tables or passages of the source.

Key:
[1] = test system: rats; test: Paw Thermal Stimulator (Hotbox) Model; type: in vivo; details: rat, i.p., tested 0.62 to 6.2 μmol/kg
Source text: For assessing nociceptive responses to an acute thermal stimulus, a commercially available paw thermal stimulator was utilized (Anesthesiology Research Laboratory, Department of Anesthesiology, University of California at San Diego, La Jolla, Calif.). This device has been previously described (Dirig, D. M. and Yaksh, T. L., Pain, 62: 321-328, 1995) and is based on the initial work of Hargreaves et al. (Pain, 32: 77-88, 1988). Rats were placed in Plexiglas cubicles that were located on a glass surface of the apparatus. The surface of the glass was maintained at 30° C. A thermal stimulus was applied to the bottom of the rear foot of the rat via a movable focused projection bulb. The stimulus current was maintained at 4.8 Amps. The latency until the animal moved its foot from the stimulus was recorded automatically by use of photodiode motion sensors. In the current studies, a 20 second cut-off was employed to limit possible tissue damage following exposure to the stimulus.
All studies began with a 20 min acclimation period. Following the acclimation period, a baseline measure was determined for each animal. Following determination of baseline, treatments were administered and measures were taken at various time points following treatment (e.g., 15, 30, and 45 min). For clarity, data were collapsed over time for statistical analysis (unless otherwise noted).
Stock solutions of compounds were prepared in absolute ethanol at a concentration of 62 μmol/ml. From this, solutions were made with 10% ethanol, and dosed by injection i.p. Compounds were tested in the dose range of from 0.62 to 6.2 μmol/kg.
For measurements, the following protocol was utilized. Six animals were used in each run. For any given measure (e.g., time point), one foot of each of the 6 animals was tested and then the process was repeated for the opposite foot. Mean values for the response were then computed based on the two scores.

[2] = test system: rat spinal cord cultures; test: Neuroprotection against substance P or glutamate toxicity in primary spinal cord cultures (LDH release); type: cell-based; details: for block of SP-induced toxicity: SP 30 μM, spantide II 100 μM, MK-801
[3] = molecular target: T1, neuronal nicotinic acetylcholine receptors (Rattus norvegicus, UniProt P09483+P12390); test: [3H]-cytisine binding to neuronal nicotinic acetylcholine receptors, whole rat brain membranes; details: [3H]-cytisine 1.25 nM, whole rat brain membranes; read-out: [3H] CYT Ki
T1 construct: crude synaptic membrane preparations from whole rat brain; from tissue; host or cells: whole rat brain, crude synaptic membranes
Protocol: Protocol for Determination of Nicotinic Acetylcholine Channel Receptor Binding Potencies of Ligands
Binding of [^3H]-cytisine ([^3H]-CYT) to neuronal nicotinic acetylcholine receptors was accomplished using crude synaptic membrane preparations from whole rat brain (Pabreza et al., Molecular Pharmacol., 1990, 39:9). Washed membranes were stored at −80° C. prior to use. Frozen aliquots were slowly thawed and resuspended in 20 volumes of buffer (containing: 120 mM NaCl, 5 mM KCl, 2 mM MgCl2, 2 mM CaCl2 and 50 mM Tris-Cl, pH 7.4 @4° C.). After centrifuging at 20,000×g for 15 minutes, the pellets were resuspended in 30 volumes of buffer. Homogenate (containing 125-150 μg protein) was added to triplicate tubes containing concentrations of test compound and [^3H]-CYT (1.25 nM) in a final volume of 500 μL. Samples were incubated for 60 minutes at 4° C., then rapidly filtered through Whatman GF/B filters presoaked in 0.5% polyethyleneimine using 3×4 mL of ice-cold buffer. The filters are counted in 4 mL of Ecolume® (ICN). Nonspecific binding was determined in the presence of 10 μM (−)-nicotine and values were expressed as a percentage of total binding.

[4] = test system: mice; test: Mouse Hot Plate Paradigm; type: in vivo; design: key to MED Hot plate model (μmol/kg, i.p.): NS = no significant effect observed relative to saline controls at the doses tested; details: 30 minutes prior to testing, 55° C.; for minimal effective dose: ip, 0.5 h, i.p., read-out: MED Hot plate model (μmol/kg, i.p.)
[5] = test system: beagle dogs; type: in vivo; details: anesthetized dog, i.v. bolus 10 nmol/kg
Protocol: Male beagle dogs were anesthetized with pentobarbital (35 mg/kg, i.v.) followed by constant i.v. infusion of pentobarbital (5 mg/kg/h). The animals were ventilated with room air by means of a mechanical respiration pump. Blood pressure was measured using a dual tip micromanometer catheter (Millar, Model SPC-770, 7F) inserted into the heart left ventricle via the carotid artery. Compounds were injected into the right femoral vein via catheter. Hemodynamic variables were computed using XYZ Real Time Spreadsheet software on a signal processing workstation (Modular Instruments, Inc.). Sixty minutes were allowed following surgery to achieve a steady-state baseline for the measured variables. Test compounds were administered by i.v. bolus (10 nmol/kg) and compared for their relative ability to elicit changes in blood pressure and heart rate over a five minute data collection period.

[6] = molecular target: T2, peripheral ganglionic receptors (Homo sapiens, UniProt P30926+P32297); test: 86Rb+ flux activation in IMR-32 human neuroblastoma cells; type: cell-based; details: 1 μM compound, % of maximum response to (S)-nicotine
T2 construct: Cells of the IMR-32 human neuroblastoma clonal cell line (ATCC, Rockville, Md.); host or cells: IMR-32 human neuroblastoma cells
Protocol: Protocol for the Determination of Ability of Nicotinic Acetylcholine Receptor Ligands to Activate Peripheral Ganglionic Receptors
Cells of the IMR-32 human neuroblastoma clonal cell line (ATCC, Rockville, Md.) were maintained in a log phase of growth according to established procedures. Experimental cells were seeded at a density of 500,000 cells/mL into a 24-well tissue culture dish. Plated cells were allowed to proliferate for at least 48 hours before loading with 2 μCi/mL of ^86Rb^+ (35 Ci/mmol) overnight at 37° C. The ^86Rb^+ efflux assays were performed according to previously published protocols (Lukas, R. J., J. Pharmacol. Exp. Ther., 265: 294-302, 1993) except serum-free Dulbecco's Modified Eagle's Medium was used during the ^86Rb^+ loading, rinsing, and agonist-induced efflux steps. Data reflect the activation of ^86Rb^+ flux at a concentration of 1 μM, and reflect the response as a percentage of the maximum response elicited by (S)-nicotine.

[7] = test system: rats; test: Chung Model of Neuropathic Pain; type: in vivo; design: key: NS = no significant effect observed relative to saline controls at the doses tested; details: rat, 50% threshold to VonFrey hairs
[8] = molecular target: neuromuscular junction nicotinic acetylcholine receptor (Tetronarce californica, UniProt P02710+P02714+P02718); test: biochemical; type: binding, Torpedo Californica; details: read-out: Ki (nM) α-bungarotoxin
[9] = test system: rats; test: Carrageenan paw edema model; type: in vivo; details: rat
[10] = mecamylamine 10 μM, MLA 10 nM, α-BTX 1 nM

T1 sequence (P09483 31-630): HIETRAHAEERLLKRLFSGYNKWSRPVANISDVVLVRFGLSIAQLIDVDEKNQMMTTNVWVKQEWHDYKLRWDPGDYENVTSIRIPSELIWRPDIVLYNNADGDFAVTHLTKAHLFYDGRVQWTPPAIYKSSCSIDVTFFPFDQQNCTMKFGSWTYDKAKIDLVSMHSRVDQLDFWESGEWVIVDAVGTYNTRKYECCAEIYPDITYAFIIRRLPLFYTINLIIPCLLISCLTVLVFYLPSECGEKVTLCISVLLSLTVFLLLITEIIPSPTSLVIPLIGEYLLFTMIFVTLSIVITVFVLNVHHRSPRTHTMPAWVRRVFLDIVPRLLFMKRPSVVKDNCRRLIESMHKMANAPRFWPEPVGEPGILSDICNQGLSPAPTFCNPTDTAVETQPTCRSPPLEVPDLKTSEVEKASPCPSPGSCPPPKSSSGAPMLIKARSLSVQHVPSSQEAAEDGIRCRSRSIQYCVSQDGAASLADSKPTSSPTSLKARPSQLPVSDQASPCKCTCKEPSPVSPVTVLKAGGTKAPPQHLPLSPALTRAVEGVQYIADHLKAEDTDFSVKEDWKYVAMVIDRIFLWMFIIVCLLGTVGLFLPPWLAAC
T1 sequence (P12390 25-500): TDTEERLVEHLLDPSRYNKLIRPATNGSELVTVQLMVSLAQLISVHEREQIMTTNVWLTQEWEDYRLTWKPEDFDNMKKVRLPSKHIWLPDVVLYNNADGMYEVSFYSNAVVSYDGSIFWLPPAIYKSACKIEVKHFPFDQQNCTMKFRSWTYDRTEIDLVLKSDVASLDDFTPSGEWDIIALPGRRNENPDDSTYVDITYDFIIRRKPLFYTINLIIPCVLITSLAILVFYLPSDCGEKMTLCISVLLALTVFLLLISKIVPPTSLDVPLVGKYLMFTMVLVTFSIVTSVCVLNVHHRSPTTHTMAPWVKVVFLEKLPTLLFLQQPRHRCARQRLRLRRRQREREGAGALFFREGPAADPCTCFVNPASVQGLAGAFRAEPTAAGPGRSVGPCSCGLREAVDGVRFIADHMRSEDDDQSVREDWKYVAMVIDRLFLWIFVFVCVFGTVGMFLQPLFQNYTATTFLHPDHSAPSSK
T2 sequence (P32297 32-505): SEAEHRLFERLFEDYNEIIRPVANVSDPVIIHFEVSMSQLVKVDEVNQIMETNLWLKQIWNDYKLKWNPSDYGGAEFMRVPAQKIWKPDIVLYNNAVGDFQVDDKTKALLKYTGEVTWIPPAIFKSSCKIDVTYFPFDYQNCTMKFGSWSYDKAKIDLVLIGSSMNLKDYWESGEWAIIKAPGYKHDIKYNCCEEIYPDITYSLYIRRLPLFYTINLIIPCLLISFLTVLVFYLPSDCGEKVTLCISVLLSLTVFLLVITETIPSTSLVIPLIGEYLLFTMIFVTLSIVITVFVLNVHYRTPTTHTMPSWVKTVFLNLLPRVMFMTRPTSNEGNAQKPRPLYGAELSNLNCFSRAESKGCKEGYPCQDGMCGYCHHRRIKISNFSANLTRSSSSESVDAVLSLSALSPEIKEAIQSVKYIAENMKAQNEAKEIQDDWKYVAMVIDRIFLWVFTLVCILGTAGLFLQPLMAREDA
T2 sequence (P30926 22-498): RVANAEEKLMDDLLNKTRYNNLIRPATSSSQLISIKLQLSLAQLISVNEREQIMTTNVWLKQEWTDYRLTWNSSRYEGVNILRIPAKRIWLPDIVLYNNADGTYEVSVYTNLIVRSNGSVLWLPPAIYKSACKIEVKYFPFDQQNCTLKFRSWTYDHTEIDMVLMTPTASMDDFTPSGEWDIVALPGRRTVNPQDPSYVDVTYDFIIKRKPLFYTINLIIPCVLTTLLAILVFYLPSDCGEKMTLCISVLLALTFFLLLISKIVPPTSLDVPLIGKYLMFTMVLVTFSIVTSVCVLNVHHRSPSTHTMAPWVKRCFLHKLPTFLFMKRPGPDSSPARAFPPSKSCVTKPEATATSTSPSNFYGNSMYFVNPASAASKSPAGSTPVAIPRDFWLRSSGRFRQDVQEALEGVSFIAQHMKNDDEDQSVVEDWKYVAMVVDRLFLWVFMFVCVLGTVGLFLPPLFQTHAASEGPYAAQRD
Chain of neuromuscular junction nicotinic acetylcholine receptor (P02714 18-506): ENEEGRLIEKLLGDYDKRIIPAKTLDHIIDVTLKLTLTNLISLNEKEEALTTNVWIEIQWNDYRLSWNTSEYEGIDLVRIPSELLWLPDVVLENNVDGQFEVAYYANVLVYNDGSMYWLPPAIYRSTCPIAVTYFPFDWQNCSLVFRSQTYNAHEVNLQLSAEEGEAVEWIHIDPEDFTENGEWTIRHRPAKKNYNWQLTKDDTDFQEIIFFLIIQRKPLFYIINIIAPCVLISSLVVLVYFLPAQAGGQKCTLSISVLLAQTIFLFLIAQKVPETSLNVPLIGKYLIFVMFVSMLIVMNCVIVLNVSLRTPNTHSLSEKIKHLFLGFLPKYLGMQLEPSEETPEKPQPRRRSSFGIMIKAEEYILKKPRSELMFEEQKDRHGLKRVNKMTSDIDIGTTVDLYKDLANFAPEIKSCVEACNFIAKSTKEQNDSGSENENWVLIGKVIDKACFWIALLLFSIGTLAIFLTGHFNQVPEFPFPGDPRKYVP
Chain of neuromuscular junction nicotinic acetylcholine receptor (P02710 25-461): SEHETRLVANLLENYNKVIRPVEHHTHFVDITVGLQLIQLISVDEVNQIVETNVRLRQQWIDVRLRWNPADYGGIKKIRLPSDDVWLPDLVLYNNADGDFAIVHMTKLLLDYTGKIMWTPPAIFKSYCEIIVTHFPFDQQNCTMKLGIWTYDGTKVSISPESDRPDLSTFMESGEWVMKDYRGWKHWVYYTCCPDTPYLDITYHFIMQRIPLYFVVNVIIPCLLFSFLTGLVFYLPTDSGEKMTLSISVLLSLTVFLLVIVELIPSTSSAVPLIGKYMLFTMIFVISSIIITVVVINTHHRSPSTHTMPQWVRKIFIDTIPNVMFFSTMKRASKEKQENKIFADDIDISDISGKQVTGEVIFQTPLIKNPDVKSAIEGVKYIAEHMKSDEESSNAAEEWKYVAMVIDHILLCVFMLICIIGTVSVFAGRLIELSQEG
Chain of neuromuscular junction nicotinic acetylcholine receptor (P02712 25-493, further chain): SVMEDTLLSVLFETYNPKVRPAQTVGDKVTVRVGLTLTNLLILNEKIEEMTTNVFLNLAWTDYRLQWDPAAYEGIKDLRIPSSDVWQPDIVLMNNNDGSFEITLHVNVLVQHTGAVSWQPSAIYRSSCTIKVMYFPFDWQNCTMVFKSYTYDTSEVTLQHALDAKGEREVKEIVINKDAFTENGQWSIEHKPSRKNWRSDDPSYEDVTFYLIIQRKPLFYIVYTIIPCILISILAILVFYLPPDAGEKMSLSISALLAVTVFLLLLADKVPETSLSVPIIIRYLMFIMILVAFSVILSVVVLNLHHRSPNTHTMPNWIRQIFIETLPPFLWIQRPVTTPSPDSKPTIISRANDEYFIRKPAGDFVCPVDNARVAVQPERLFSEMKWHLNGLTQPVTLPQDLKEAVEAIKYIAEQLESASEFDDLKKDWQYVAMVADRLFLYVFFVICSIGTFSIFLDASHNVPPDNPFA
Chain of neuromuscular junction nicotinic acetylcholine receptor (P02718 22-522): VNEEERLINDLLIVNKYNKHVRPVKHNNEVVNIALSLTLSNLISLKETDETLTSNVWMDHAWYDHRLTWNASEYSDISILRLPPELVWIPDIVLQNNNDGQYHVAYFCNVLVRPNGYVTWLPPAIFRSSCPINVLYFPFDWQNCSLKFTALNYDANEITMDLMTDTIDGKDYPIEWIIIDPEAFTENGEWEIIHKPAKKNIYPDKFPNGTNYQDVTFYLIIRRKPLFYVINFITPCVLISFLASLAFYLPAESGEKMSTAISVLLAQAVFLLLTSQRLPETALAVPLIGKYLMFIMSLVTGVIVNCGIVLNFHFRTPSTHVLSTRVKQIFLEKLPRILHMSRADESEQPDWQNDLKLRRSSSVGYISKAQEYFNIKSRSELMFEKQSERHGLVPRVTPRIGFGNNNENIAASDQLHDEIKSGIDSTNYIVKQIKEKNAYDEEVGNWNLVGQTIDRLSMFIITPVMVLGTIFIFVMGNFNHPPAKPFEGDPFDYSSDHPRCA

C[C@H](NC(=O)OC(C)(C)C)C(=O)N1CC[C@@H]1COc1ccc(F)nc1 [Example 54]
analgesic dose [1]: >6.2 µmol/kg

spantide II
block of SP-induced toxicity [2]: blocked

COc1ccc(OC(=O)N2CC[C@@H]2COc2ccc(F)nc2)cc1 [Example 81]
analgesic dose [1]: 0.62 µmol/kg

O=C(Oc1ccc([N+](=O)[O-])cc1)N1CC[C@@H]1COc1ccc(F)nc1 [Example 80]
analgesic dose [1]: 0.62 µmol/kg

Cl.Cl.Clc1ccc(OC[C@@H]2CCN2)cn1 [Example 19, 5-((2S)-Azetidinylmethyloxy)-2-chloropyridine dihydrochloride]
less potent as a neuroprotectant in spinal cord ([2]; relative to compound of Example 4): 10 fold | Ki [3]: 0.04 nM | MED Hot plate model (μmol/kg, i.p.) [4]: 0.62 µmol/kg | Increase in Diastolic Blood Pressure (mm Hg) [5]: 67.3 ± 3.2 mm Hg | Increase in Heart Rate (beats/min) [5]: 26.0 ± 7.8 beats/min | IMR-32 % maximal nicotine response at 1 μM Cmpd conc'n [6]: 173% | MED Chung model (μmol/kg, i.p.) [7]: 0.3 µmol/kg | Ki [8]: 1300 nM

Clc1cc(OC[C@@H]2CCN2)cnc1Cl [Example 15, 5-((2S)-azetidinylmethoxy)-2,3-dichloropyridine hydrochloride]
Ki [3]: 0.02 nM | minimal effective dose [4]: 1.9 µmol/kg | IMR-32 % maximal nicotine response at 1 μM Cmpd conc'n [6]: 117% | MED Chung model (μmol/kg, i.p.) [7]: NS

Fc1cncc(OC[C@H]2CCN2)c1 [Example 11, 5-((2R)-Azetidinylmethyloxy)-3-fluoropyridine dibenzoate]
Ki [3]: 0.34 nM | MED Hot plate model (μmol/kg, i.p.) [4]: NS | IMR-32 % maximal nicotine response at 1 μM Cmpd conc'n [6]: 31%

O=C(Oc1ccccc1)N1CC[C@@H]1COc1ccc(F)nc1 [Example 79]
analgesic dose [1]: 0.62 µmol/kg

Cc1cncc(OC[C@@H]2CCN2)c1 [Example 13, 5-Methyl-3-((2S)-Azetidinylmethyloxy)pyridine dibenzoate]
Ki [3]: 0.05 nM | MED Hot plate model (μmol/kg, i.p.) [4]: NS | IMR-32 % maximal nicotine response at 1 μM Cmpd conc'n [6]: 27%

Clc1ncc(OC[C@@H]2CCN2)cc1Br [Example 17, 5-((2S)-azetidinylmethoxy)-3-bromo-2-chloropyridine hydrochloride]
Ki [3]: 0.02 nM | minimal effective dose [4]: 1.9 µmol/kg | IMR-32 % maximal nicotine response at 1 μM Cmpd conc'n [6]: 120% | MED Chung model (μmol/kg, i.p.) [7]: 0.19 µmol/kg

O=C1CCC(=O)N1CN1CC[C@@H]1COc1ccc(F)nc1 [Example 71]
analgesic dose [1]: 0.62 µmol/kg

CCN1C[C@]2(COC(=O)c3ccccc3N3C(=O)C[C@H](C)C3=O)CC[C@H](OC)[C@@]34[C@@H]5C[C@H]6[C@H](OC)[C@@H]5[C@](O)(C[C@@H]6OC)[C@@](O)([C@@H](OC)[C@H]23)[C@@H]14 [methyllycaconitine]
block of the neuroprotective effect by nicotinic antagonists [2, 10]: blocked

O=C(CCSSCCC(=O)N1CC[C@@H]1COc1ccc(F)nc1)N1CC[C@@H]1COc1ccc(F)nc1 [Example 95]
analgesic dose [1]: >6.2 µmol/kg

α-bungarotoxin
block of the neuroprotective effect by nicotinic antagonists [2]: blocked

O=C1c2ccccc2C(=O)N1CN1CC[C@@H]1COc1ccc(F)nc1 [Example 72]
analgesic dose [1]: 0.62 µmol/kg

O=C(N1CCCC1)N1CC[C@@H]1COc1ccc(F)nc1 [Example 92]
analgesic dose [1]: >6.2 µmol/kg

C[C@]12N[C@H](Cc3ccccc31)c1ccccc12 [MK-801]
block of Glu-induced toxicity ([2]; Glu 300 μM, MK-801 1 μM): blocked | block of SP-induced toxicity [2]: cannot prevent

Clc1ccc(OC[C@H]2CCN2)cn1 [Example 1, 5-((2R)-Azetidinylmethoxy)-2-chloropyridine]
Increase in Diastolic Blood Pressure (mm Hg) [5]: 23.2 ± 4.6 mm Hg | Increase in Heart Rate (beats/min) [5]: 7.8 ± 2.9 beats/min | blood pressure increase as fraction of that seen with Example 19 [5]: ⅓ | heart rate increase as fraction of that seen with Example 19 [5]: ⅓

Fc1cncc(OC[C@@H]2CCN2)c1 [Example 10, 5-((2S)-Azetidinylmethyloxy)-3-fluoropyridine dihydrochloride]
Ki [3]: 0.09 nM | minimal effective dose [4]: 6.2 µmol/kg | IMR-32 % maximal nicotine response at 1 μM Cmpd conc'n [6]: 28% | MED Chung model (μmol/kg, i.p.) [7]: 0.62 µmol/kg

CNC1(C)C2CCC(C2)C1(C)C (stereo not shown) [mecamylamine, reference compound]
block of the neuroprotective effect by nicotinic antagonists [2, 10]: blocked | prevention of the paw edema effect of Example 4 by nicotinic antagonist [9]: prevented | prevention of the paw edema effect of Example 4 by nicotinic antagonist ([9]; listed as mecaamylamine): prevents this effect

Clc1cc(OC[C@H]2CCN2)cnc1Cl [Example 16, 5-((2R)-azetidinylmethoxy)-2,3-dichloropyridine hydrochloride]
Ki [3]: 0.06 nM | minimal effective dose [4]: 6.2 µmol/kg | IMR-32 % maximal nicotine response at 1 μM Cmpd conc'n [6]: 85% | MED Chung model (μmol/kg, i.p.) [7]: 0.19 µmol/kg

Cl.Fc1ncccc1OC[C@@H]1CCN1 [Example 122, 2-Fluoro-3-(2(S)-azetidinylmethoxy)pyridine hydrochloride]
MED Chung model (μmol/kg, i.p.) [7]: 1.9 µmol/kg

Clc1ncc(OC[C@H]2CCN2)cc1Br [Example 18, 5-((2R)-azetidinylmethoxy)-3-bromo-2-chloropyridine hydrochloride]
Ki [3]: 0.02 nM | minimal effective dose [4]: 0.62 µmol/kg | IMR-32 % maximal nicotine response at 1 μM Cmpd conc'n [6]: 93%

CC1(C)CC(=O)C=C(N2CC[C@@H]2COc2ccc(F)nc2)C1 [Example 75]
analgesic dose [1]: 6.2 µmol/kg
